Calls of active or inactive are those of the source.
Tests used:
Cytochrome P450 2C9 = Cytochrome P450 2C9 (Homo sapiens, UniProt P11712)
H4 = assay: Luminescence Cell-Based Dose Response HTS to Identify Activators of 5'UTR Stem-Loop Driven Prion Protein mRNA Translation in H4 Neuroglioblastoma Cells. [Related pubchem assays: 1829 (Project Summary), 1814 (Primary HTS)]; format: functional; conditions: Homo sapiens
[1] = Luminescence Cell-Based Dose Response HTS to Identify Activators of Luciferase Translation or Activity in H4 […] Cells. [Related pubchem assays: 1829 (Project Summary), 1814 (Primary HTS)]; format: functional
[2] = Luminescence Cell-Based Dose Confirmation HTS to Identify Activators of 5'UTR Stem-Loop Driven Alpha-Synuclein mRNA Translation in H4 Neuroglioblastoma Cells. [Related pubchem assays: 1829 (Project Summary), 1814 (Primary HTS)]; format: functional
Cytochrome P450 1A2 = target: T1, Cytochrome P450 1A2 (Homo sapiens, UniProt P05177);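 also: PubChem cytochrome P450 panel assay, CYP1A2 panel member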
T1 sequence (P05177 whole entry): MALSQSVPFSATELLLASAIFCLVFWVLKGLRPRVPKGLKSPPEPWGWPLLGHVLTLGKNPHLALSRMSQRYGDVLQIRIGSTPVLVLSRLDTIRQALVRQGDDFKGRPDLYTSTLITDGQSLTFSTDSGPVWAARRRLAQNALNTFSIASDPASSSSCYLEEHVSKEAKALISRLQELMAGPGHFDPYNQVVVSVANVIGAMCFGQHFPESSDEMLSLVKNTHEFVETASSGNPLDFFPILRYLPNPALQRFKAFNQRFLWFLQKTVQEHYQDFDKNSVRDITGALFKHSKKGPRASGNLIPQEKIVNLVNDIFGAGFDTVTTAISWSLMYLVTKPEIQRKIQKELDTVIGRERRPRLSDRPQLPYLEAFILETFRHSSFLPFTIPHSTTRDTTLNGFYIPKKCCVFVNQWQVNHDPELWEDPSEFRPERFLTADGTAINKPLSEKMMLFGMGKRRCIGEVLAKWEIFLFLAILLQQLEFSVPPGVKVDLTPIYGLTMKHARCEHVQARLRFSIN

Cytochrome P450 2D6 = Cytochrome P450 2D6 (Homo sapiens, UniProt P10635);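 also: CYP2D6 member of a cytochrome P450 panel assay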
Sequence of Cytochrome P450 2D6 (P10635 whole entry): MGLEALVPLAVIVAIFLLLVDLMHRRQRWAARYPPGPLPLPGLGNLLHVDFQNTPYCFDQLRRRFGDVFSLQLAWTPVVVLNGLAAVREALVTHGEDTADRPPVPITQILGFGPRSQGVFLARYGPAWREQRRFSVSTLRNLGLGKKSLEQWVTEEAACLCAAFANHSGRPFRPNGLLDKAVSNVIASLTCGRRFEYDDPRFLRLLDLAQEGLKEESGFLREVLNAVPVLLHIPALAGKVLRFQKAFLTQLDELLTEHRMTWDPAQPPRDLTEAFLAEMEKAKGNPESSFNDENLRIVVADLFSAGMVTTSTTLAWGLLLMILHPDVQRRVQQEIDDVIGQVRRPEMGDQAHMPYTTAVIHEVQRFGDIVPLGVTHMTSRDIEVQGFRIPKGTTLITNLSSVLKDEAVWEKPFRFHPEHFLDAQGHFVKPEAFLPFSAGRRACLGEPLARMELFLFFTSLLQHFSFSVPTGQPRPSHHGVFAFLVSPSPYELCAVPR

[3] = blockers of bursicon-stimulated LGR2 cAMP reporter – cell-based, HEK293, CRE-luciferase reporter, cherry pick, set 2, dose response (AID 743343); format: functional;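 also: transfected cells were stimulated with diluted bursicon conditioned medium after compound addition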
[4] = blockade of melanocortin 4 receptor signaling – cell-based, plate reader, cherry pick, counter-screen for LGR2 antagonist project, dose response (AID 743444); format: functional;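 also: transfected HEK 293 cells stimulated with alpha-MSH peptide; potency of inhibitors of the alpha-MSH evoked signal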
Cytochrome P450 2C19 = Cytochrome P450 2C19 (Homo sapiens, UniProt P33261); assay: Cytochrome panel assay with activity outcomes. Panel member name: p450-cyp2c19 Compounds with AC50 equal or less than 10 uM are considered active; format: functional; conditions: read-out: AC50
Sequence of Cytochrome P450 2C19 (P33261 whole entry): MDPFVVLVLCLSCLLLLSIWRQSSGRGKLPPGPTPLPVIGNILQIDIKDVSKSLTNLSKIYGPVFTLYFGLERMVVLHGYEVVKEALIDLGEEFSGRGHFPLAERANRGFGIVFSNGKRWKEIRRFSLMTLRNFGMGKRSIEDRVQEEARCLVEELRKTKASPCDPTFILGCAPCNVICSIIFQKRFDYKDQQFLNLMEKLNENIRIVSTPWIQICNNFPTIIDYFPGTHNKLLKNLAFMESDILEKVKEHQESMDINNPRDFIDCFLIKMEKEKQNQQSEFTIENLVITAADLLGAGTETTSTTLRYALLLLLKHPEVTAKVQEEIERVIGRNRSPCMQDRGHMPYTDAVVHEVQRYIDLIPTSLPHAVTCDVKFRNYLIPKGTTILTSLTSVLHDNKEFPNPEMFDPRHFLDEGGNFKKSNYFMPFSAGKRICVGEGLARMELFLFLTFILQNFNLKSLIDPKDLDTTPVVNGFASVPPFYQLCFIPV

cells [5] = format: functional, cell-based
cells [6] = format: functional, cell-based; remark: listed apart in the source
Streptokinase A = target: T2, Streptokinase A (Streptococcus pyogenes serotype M1, UniProt P10520); assay: viability-normalized secreted streptokinase activity reduction – plasminogen activation absorbance, OD405, dose response (AID 1914); format: functional, Streptococcus pyogenes M1 GAS;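 also: secreted streptokinase activity via plasminogen activation per viability signal from cell pellet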
T2 sequence (P10520 whole entry): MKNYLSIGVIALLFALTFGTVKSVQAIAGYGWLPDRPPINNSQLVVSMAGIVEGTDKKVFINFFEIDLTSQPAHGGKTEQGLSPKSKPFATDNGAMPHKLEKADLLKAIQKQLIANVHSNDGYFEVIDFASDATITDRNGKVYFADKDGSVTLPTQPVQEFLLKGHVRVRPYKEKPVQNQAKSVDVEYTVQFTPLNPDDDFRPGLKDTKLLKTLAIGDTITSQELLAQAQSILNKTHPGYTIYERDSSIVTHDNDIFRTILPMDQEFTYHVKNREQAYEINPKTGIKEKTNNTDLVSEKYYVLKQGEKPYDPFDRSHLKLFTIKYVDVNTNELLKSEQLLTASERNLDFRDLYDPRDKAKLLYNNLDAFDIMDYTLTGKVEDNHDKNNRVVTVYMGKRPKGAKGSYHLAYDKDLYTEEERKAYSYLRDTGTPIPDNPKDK

[7] = test system: Streptococcus sp. 'group A'; assay: Streptococcus pyogenes SK(-)GAS viability under kanamycin – luminescence, BacTiterGlo, confirmation, counter-screen for streptokinase expression inhibitor project, dose response (AID 1900); format: functional, organism-based
Streptococcus = assay: GAS UMAA2166 growth inhibition – luminescence, BacTiterGlo, counter-screen for streptokinase expression inhibitor project, dose response (AID 1915); format: functional, organism-based;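 also: potency for reduction of bacterial viability or growth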
[8] = non-specific 3'UTR reporter inhibition in Clone20-Shn3RL – cell-based, Renilla luciferase, cherry-picked, counter-screen for Shn3 inhibitor project, dose response (AID 624133); format: functional
INS1 = assay: INS-1E survival protection against cytokine death – cell-based, luminescence, retest, dose response (AID 449756); format: functional; conditions: Rattus norvegicus;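 also: cell death triggered by IL-1 beta plus TNF-alpha plus IFN-gamma mixture; protective hits raise ATP signal compared with cytokine alone wells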
[9] = viability of HCT116 lacking mutant beta-catenin – cell-based, human colon tumor, dose response (AID 1045); format: functional;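 also: HCT116 colon tumor cells with beta catenin knocked out; cells exposed to compound for 60 hours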
[10] = reduction of Shn3 3'UTR-driven luciferase in osteoblasts – cell-based, Clone20 osteoblasts, firefly luciferase, cherry-picked, dose response (AID 624132); format: functional;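 also: firefly luciferase luminescence from reporter carrying the Shn3 3'UTR in osteoblasts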
[11] = Luminescence Cell-Based Dose Retest to Confirm Inhibitors of Cancer Stem Cells. [Related pubchem assays (depositor defined):AID2717, AID2721]; format: functional; conditions: Homo sapiens
[12] = viability of PTEN-deleted HCT116 cells – cell-based, HCT116 PTEN knockout, dose response (AID 1047); format: functional;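 also: HCT116 colon tumor cells with PTEN knocked out; cells exposed to compound for 60 hours before readout; potency for loss of cell viability measured by luminescence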
[13] = loss of viability in HepG2 cells – cell-based, CellTiter-Glo, cherry-picked, cytotoxicity control for Shn3 inhibitor project, dose response (AID 624134); format: functional
Cytochrome P450 3A4 = Cytochrome P450 3A4 (Homo sapiens, UniProt P08684);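 also: CYP3A4 tested as one member of a cytochrome P450 panel screen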
Sequence of Cytochrome P450 3A4 (P08684 whole entry): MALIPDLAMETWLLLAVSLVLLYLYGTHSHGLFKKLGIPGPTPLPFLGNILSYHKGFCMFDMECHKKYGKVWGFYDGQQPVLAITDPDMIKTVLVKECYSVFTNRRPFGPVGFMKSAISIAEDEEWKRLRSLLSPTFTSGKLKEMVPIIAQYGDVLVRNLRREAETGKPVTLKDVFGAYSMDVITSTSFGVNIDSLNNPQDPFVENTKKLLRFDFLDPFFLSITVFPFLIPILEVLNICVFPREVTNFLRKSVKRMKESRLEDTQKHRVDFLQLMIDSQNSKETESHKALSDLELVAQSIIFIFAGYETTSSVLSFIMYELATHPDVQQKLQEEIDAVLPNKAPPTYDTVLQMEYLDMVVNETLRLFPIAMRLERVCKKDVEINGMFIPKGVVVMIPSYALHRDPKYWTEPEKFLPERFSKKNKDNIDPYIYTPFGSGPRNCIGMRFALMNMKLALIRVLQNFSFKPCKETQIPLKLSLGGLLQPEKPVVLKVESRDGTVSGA

Sequence of Cytochrome P450 2C9 (P11712 whole entry): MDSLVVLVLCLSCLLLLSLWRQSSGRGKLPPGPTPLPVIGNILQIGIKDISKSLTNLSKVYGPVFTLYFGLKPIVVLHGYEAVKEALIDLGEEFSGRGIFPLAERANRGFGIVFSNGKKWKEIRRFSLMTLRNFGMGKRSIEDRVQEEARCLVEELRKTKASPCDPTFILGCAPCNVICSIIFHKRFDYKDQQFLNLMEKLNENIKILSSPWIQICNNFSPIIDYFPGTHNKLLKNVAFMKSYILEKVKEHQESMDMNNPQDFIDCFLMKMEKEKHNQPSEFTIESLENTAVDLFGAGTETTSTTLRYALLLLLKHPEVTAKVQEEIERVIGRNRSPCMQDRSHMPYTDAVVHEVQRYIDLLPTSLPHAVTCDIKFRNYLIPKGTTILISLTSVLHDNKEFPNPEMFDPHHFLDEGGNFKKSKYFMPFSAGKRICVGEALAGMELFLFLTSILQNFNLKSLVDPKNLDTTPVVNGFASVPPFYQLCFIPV

Compound: CC(C)OC(=O)CC12CN(C)CC(CC(=O)OC(C)C)(CN(C)C1)C2=O
- AC50 (Cytochrome P450 2C9): inconclusive
- EC50 (H4): 37 µM (active)
- EC50 [1]: 72.4 µM (active)
- EC50 [2]: 47.6 µM (active)

Compound: COc1ccc(S(=O)(=O)Nc2cccc(Cl)c2)cc1OC
- AC50 (Cytochrome P450 1A2): 31.6 µM (inconclusive)
- AC50 (Cytochrome P450 2C9): inconclusive

Compound: COc1cc(/C=C/C(=O)Nc2cc(C(F)(F)F)ccc2Cl)cc(OC)c1OC
- AC50 (Cytochrome P450 1A2): 15.8 µM (inconclusive)
- AC50 (Cytochrome P450 2C9): inconclusive
- AC50 (Cytochrome P450 2D6): 0.00562 µM (inconclusive)

Compound: Cc1c(NC(=O)c2ccc(-c3ccccc3)cc2)cccc1C(=O)O
- AC50 [3]: 17.1 µM (active)
- AC50 [4]: 13.5 µM (active)

Compound: NS(=O)(=O)c1ccc(CNC(=O)/C=C/c2c(Cl)cccc2Cl)cc1
- AC50 (Cytochrome P450 2C9): inconclusive
- AC50 (Cytochrome P450 2C19): 25.1 µM (inconclusive)

Compound: CC(C)(C)NC(=O)CN(Cc1ccc2c(c1)OCO2)C(=O)CNS(=O)(=O)c1ccc(F)cc1
- EC50 (cells [5]): > 350 µM (not active)
- EC50 (cells [6]): > 350 µM (not active)

Compound: O=S(=O)(NCc1nnc2c(C(F)(F)F)cc(Cl)cn12)c1ccccc1
- EC50 (Streptokinase A): > 150 µM (not active)
- EC50 [7]: > 150 µM (not active)
- EC50 (Streptococcus): > 150 µM (not active)
- EC50 (cells [5]): > 350 µM (not active)
- EC50 (cells [6]): > 350 µM (not active)

Compound: Cc1nn(Cc2c(Cl)cccc2Cl)c(C)c1NC(=O)c1cn(-c2ccccc2)nc1-c1ccccc1
- EC50 (Streptokinase A): > 150 µM (not active)
- AC50 [8]: 25.8 µM (active)
- EC50 [7]: 8.01 µM (active)
- EC50 (Streptococcus): 21.6 µM (active)
- AC50 (INS1): 2.46 µM (active)
- EC50 [9]: 4.04 µM (active)
- AC50 [10]: 55 µM (active)
- AC50 [11]: 1.01 µM (active)
- EC50 [12]: 4.36 µM (active)

Compound: O=C1CCCc2ccccc2N1Cc1ccc(F)cc1
- EC50 (cells [5]): > 350 µM (not active)
- EC50 (cells [6]): > 350 µM (not active)

Compound: COc1cc(CC(=O)Nc2nc(-c3ccc(F)c(F)c3)cs2)cc(OC)c1OC
- AC50 [8]: 19.2 µM (active)
- AC50 (INS1): 6.89 µM (active)
- AC50 [10]: 3.92 µM (active)
- AC50 [13]: 6.77 µM (active)

Compound: O=c1c2ccccc2nnn1CSc1nnnn1-c1ccccc1
- AC50 (Cytochrome P450 1A2): 25.1 µM (inconclusive)
- AC50 (Cytochrome P450 2C9): inconclusive
- AC50 (Cytochrome P450 2D6): 17.8 µM (inconclusive)
- AC50 (Cytochrome P450 3A4): 12.6 µM (inconclusive)

Compound: O=C(/C=C/c1cc2c(cc1Br)OCO2)NCc1ccc(Cl)cc1
- AC50 (Cytochrome P450 2C9): inconclusive
- AC50 (Cytochrome P450 2C19): 17.8 µM (inconclusive)

Compound: COc1ccccc1C(=O)Nc1ccccc1SC(=O)c1ccccc1OC
- EC50 (cells [5]): > 350 µM (not active)
- EC50 (cells [6]): > 350 µM (not active)
